Laboratory results as given in patent publication US20240252658A1, “BIFUNCTIONAL PROTAC-TYPE COMPOUNDS TARGETING PXR, METHOD FOR PREPARING SAME AND THERAPEUTIC USE THEREOF” (Centre National de la Recherche Scientifique, priority 2021, published 2024).

Columns and labels:
LS174T = assay: Cell viability, Sulforhodamine B, LS174T; format: cell-based; settings: LS174T line, increasing concentrations, 72 h
Protocol: (§1) The effect of PROTACs on cell viability has been tested on various lines CRC1, HT29 and LS174T. The cells were incubated in the presence of increasing concentrations of molecules for 72 h before being fixed and marked by Sulforhodamine B (Sigma). After washing and lysis of the cells, the incorporated colorant released by the cells is directly proportional to the cell biomass. It is measured at […] by a 96-well plate spectrophotometer (Tecan). The signal obtained for the untreated cells is set at 100%.

CRC1 cells = assay: Aldefluor marking of cancer stem cells, CRC1; format: cell-based; settings: 5 μM, 48 h, compared to untreated cells
Protocol: (§2) The effects of the PROTACs on the survival and self-renewal of colic cancer stem cells were studied in vitro on the HT29 line or cancer cells isolated from patients (CRC1). The cells were treated with or without 5 μM PROTACs for 48 h before being analyzed: Aldefluor marking, enzymatic activity preferentially present in cancer stem cells (FIG. 10A); formation of tumorspheres under aseric and non-adherent conditions (FIG. 10B), and finally resistance to chemotherapy (FIGS. […] and 10D).
(§3) The tumorspheres with a diameter of more than 50 μM were counted 10 days after treatment and culturing of 200 cells per well (previously treated with poly2Hema in order to prevent any cell adhesion) in 100 μL of depleted BCS medium. These culture conditions allow only the survival of cancer stem cells. FIGS. 10C and 10D show the effects of the PROTACs JMV7048 and JMV7965 on survival (10C) and the ability to form tumorspheres (10D) of the HT29 cells maintained in the presence of different concentrations of 5-FU and SN38 (Folfiri 1X=50 μg 5-FU+500 nM SN38) and cultured in 100 μL of depleted BCS medium in dishes pretreated with poly2Hema in order to prevent any cell adhesion. The tumorspheres with a diameter of more than 50 μM were counted 10 days after seeding 200 cells/well.

PXR protein [1] = molecular target: T1, PXR protein (Homo sapiens, UniProt O75469); assay: PXR degradation in LS174T cells by in vitro western blotting; format: cell-based; design: endogenous in cells; host or cells: LS174T; settings: for expression level of the PXR protein: 5 μM, 24 h of treatment
T1 sequence (O75469 1-434): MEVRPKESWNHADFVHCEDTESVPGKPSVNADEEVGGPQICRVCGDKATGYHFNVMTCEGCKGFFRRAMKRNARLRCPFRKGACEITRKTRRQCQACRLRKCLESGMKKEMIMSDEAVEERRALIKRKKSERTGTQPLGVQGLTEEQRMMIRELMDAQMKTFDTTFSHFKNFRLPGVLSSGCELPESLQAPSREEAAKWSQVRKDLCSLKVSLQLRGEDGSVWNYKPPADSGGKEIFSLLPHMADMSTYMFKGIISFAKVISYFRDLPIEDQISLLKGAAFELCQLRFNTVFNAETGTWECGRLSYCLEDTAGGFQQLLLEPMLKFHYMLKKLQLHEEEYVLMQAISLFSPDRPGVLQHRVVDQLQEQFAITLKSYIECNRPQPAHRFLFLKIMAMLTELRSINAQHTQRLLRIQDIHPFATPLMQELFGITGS
Protocol: The effect of the PROTACs on the expression level of the PXR protein was studied by western blotting. The LS174T cells were […] in the absence or presence of 50 nM of an siRNA targeting PXR (siPXR: NR112 Silencer, Thermofischer) or treated by the PROTACs. After lysis of the cells (RIPA+antiproteases), the proteins were purified and assayed before being deposited ([…]) on 10% SDS-PAGE gel. […] The intensities of the signals were measured by a camera (BioRad MP Touch). […] FIGS. 6D and 6E illustrate the effect of JMV7048 on the expression level of PXR based on the treatment time (maximum effect reached after 3 h of treatment) and the concentration used (decrease dependent on the dose, with a maximum effect observed from 500 nM).

PXR [2] = assay: CYP3A4 mRNA expression by RT-qPCR in LS174T cells; format: cell-based; settings: 5 μM, 48 h, with rifampicin 5 μM
Protocol: . After lysis of the cells and purification of the total RNAs (Qiagen RNAeasy), the complementary DNAs were prepared (SuperScript II in the presence of random primers of 6 nucleotides, Invitrogen). The expression of CYP3A4 mRNA and RPLO and actin housekeeping genes was measured by RT-qPCR on an LC480 apparatus (Roche) in the presence of SyberGreen (Millipore). The relative expression levels were calculated according to the RQ=Relative quantification=2-ΔΔCt method, the untreated cells serving as a calibrator set to 1. […]

PXR [3] = assay: CYP3A4 protein expression by western blotting in LS174T cells; format: cell-based; design: dose or concentration left out as unconfirmed; settings: 48 h
Protocol: The LS174T cells were treated for 48 h with […] JMV7048 in the presence or absence of rifampicin (PXR ligand) at […] final. After lysis of the cells (RIPA+antiproteases), the proteins were purified and assayed before being deposited (90 μg) on 10% SDS-PAGE gel. […] The intensities of the signals were measured by a camera (BioRad MP Touch).

HT29 cells [4] = assay: Cell viability, Sulforhodamine B, HT29; format: cell-based; settings: increasing concentrations, 72 h
Protocol: as §1

CRC1 = assay: Cell viability, Sulforhodamine B, CRC1; format: cell-based; settings: CRC1 protoculture, increasing concentrations, 72 h
Protocol: as §1

HT29 cells [5] = assay: Tumorsphere formation (Sphere Forming Cells), HT29; format: cell-based; settings: 5 μM, 48 h, spheres counted after 10 days
Protocol: as §2, §3

HT29 cells [6] = assay: Survival and chemoresistance of cancer stem cells in colon cancer cell lines; format: cell-based; settings: 5 μM for 2 days, 5-FU and SN38 (Folfiri)
Protocol: as §2, §3

PXR protein [7] = molecular target: T1, PXR protein; assay: Importance of the proteasome pathway for PXR degradation, western blotting in LS174T cells; format: cell-based; design: endogenous in cells; host or cells: LS174T; settings: 24 hours
Protocol: The involvement of the proteasome pathway in the effects of PROTACs on the expression level of the PXR protein was studied by western blotting. The LS174T cells were treated for 24 hours with JMV7048 in the presence or absence of the […] (MLN4924) or the proteasome inhibitor (Bortezomib).

[8] = molecular target: T2, PXR ligand binding domain (LBD) (Homo sapiens, UniProt O75469); assay: LanthaScreen TR-FRET PXR competitive binding assay; settings: displacement of fluorescent reference ligand, 1:30 hours at room temperature, read-out: affinity for PXR
T2 construct: purchased Invitrogen
T2 sequence (O75469 146-433 limits assumed): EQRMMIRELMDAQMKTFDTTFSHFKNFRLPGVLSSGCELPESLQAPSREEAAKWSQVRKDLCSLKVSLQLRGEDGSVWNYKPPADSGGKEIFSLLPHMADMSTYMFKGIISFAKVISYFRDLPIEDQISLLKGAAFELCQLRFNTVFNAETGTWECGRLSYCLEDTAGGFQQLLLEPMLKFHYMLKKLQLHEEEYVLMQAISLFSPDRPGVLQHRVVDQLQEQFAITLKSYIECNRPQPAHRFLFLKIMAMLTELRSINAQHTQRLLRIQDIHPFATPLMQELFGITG
Protocol: The molecules were incubated for 1:30 hours at room temperature with the PXR LBD in the presence of a fluorescent reference ligand. The displacement of the fluorescent ligand caused by the prePROTAC or the PXR SR12813 ligand was measured by reading emissions at 520 nm and 495 nm after excitation at 337 nm on a PHERA-Star apparatus (BMG LABTECH).

Row | SMILES | toxicity (cell viability) (LS174T) | percentage of ALDH-positive cells (CRC1 cells) | expression level of the PXR protein (PXR protein [1]) | effect on expression of CYP3A4 mRNA induced by rifampicin (PXR [2]) | also measured
1 | Cc1cc(C)c(S(=O)(=O)Nc2ccc3c(c2)nc(CCCCCCCNC(=O)CCCCCCN2CCN(c4ccc5c(c4)C(=O)N(C4CCC(=O)NC4=O)C5=O)CC2)n3Cc2ccccc2)c(C)c1 (centres unmarked) [JMV7505] | absence of toxicity | significantly reduce the percentage of ALDH-positive cells | significantly reduce the expression level of the PXR protein |  | 
2 | Cc1cc(C)c(S(=O)(=O)Nc2ccc3c(c2)nc(CCCCCCCNC(=O)CCCCCN2CCN(c4ccc5c(c4)C(=O)N(C4CCC(=O)NC4=O)C5=O)CC2)n3Cc2ccccc2)c(C)c1 (centres unmarked) [JMV7048] | absence of toxicity | significantly reduce the percentage of ALDH-positive cells | significantly reduce the expression level of the PXR protein | significantly reduce the induction of CYP3A4 | effect on induction of the CYP3A4 enzyme mediated by rifampicin (PXR [3]): reduce the induction of the CYP3A4 enzyme; cell viability (HT29 cells [4]): does not affect the viability; cell viability (CRC1): does not affect the viability; number of cells capable of surviving anoikis and forming tumorspheres (Sphere Forming Cells) (HT29 cells [5]): significantly reduce the number of HT29 cells; survival and chemoresistance of stem cells (HT29 cells [6]): significantly reduces the survival and chemoresistance of stem cells; treatment time at which maximum effect on PXR expression level is reached (PXR protein [1]): 3 h; concentration from which maximum effect on PXR expression level is observed (PXR protein [1]; decrease dependent on the dose): ≥ 500 nM; decrease in PXR expression level with MLN4924 or Bortezomib (PXR protein [7]; with or without MLN4924 or Bortezomib): reverted by the CRBN ubiquitin ligase inhibitors (MLN4924, FIG. 8A) or by an inhibitor of the 26S proteasome
3 | Cc1cc(C)c(S(=O)(=O)Nc2ccc3c(c2)nc(CCCCCCCNC(=O)CCCCCN2CCN(C4CCC5C(=O)N(C6CCC(=O)N(C)C6=O)C(=O)C5C4)CC2)n3Cc2ccccc2)c(C)c1 (centres unmarked) [JMV7159] |  |  |  | additive effect on the expression of CYP3A4 mRNA | expression level of the PXR protein (PXR protein [7]): does not cause a decrease in the expression level of PXR
4 | Cc1cc(C)c(S(=O)(=O)Nc2ccc3c(c2)nc(CCCCCCCNC(=O)CN2CCC(CN4CCN(c5ccc6c(c5)C(=O)N(C5CCC(=O)NC5=O)C6=O)CC4)CC2)n3Cc2ccccc2)c(C)c1 (centres unmarked) [JMV7965] |  | significantly reduce the percentage of ALDH-positive cells | significantly reduce the expression level of the PXR protein | significantly reduce the induction of CYP3A4 | effect on induction of the CYP3A4 enzyme mediated by rifampicin (PXR [3]): reduce the induction of the CYP3A4 enzyme; number of cells capable of surviving anoikis and forming tumorspheres (Sphere Forming Cells) (HT29 cells [5]): significantly reduce the number of HT29 cells; survival and chemoresistance of stem cells (HT29 cells [6]): significantly reduces the survival and chemoresistance of stem cells
5 | Cc1cc(C)c(S(=O)(=O)Nc2ccc3c(c2)nc(CCCCCCCNC(=O)CCCCCCCN2CCN(c4ccc5c(c4)C(=O)N(C4CCC(=O)NC4=O)C5=O)CC2)n3Cc2ccccc2)c(C)c1 (centres unmarked) [JMV7506] |  | significantly reduce the percentage of ALDH-positive cells | significantly reduce the expression level of the PXR protein |  | 
6 | Cc1cc(C)c(S(=O)(=O)Nc2ccc3c(c2)nc(CCCCCCCN)n3Cc2ccccc2)c(C)c1 [JMV6944, N-[2-(7-aminoheptyl)-1-benzyl-1H-1,3-benzodiazol-5-yl]-2,4,6-trimethylbenzene-1-sulfonamide] |  |  |  | additive effect on the expression of CYP3A4 mRNA | Kd [8]: 18.4 nM
7 | Cc1cc(C)c(S(=O)(=O)Nc2ccc3c(c2)nc(CCCCCCCNC(=O)CCCCCCN2CCN(c4ccc(C(=O)NC5CCC(=O)NC5=O)cc4)CC2)n3Cc2ccccc2)c(C)c1 (centres unmarked) [JMV7605] | absence of toxicity |  | significantly reduce the expression level of the PXR protein |  | 
